Assay results from US7935525B2, “Inhibition of ATF2 activity to treat cancer” (Mount Sinai School of Medicine, priority 2001, dated 2011).
No end group written: not given here.

Legend:
SW1 melanoma tumors [1] = test: Growth and metastasis of SW1 tumors constitutively expressing peptide, C3H mice; format: in vivo
Method: (§1) Tumor growth and metastasis evaluation in vivo. Cell lines established in culture to constitutively or inducibly express the peptide were injected into mice subcutaneously (S.C.). LU1205, FEMX and SW-1 cells that expressed control or peptide II were trypsinized, resuspended in PBS and injected SC (1×10^6) into 6-7 week old mice in the lower flank. When the tumor reached the size of about 50 mm^3, 5 μM of SB203580 was injected into four areas of the LU1205 tumors every 4 days during a 2-week period. For FEMX tumors UCN-01 (2.5 mg/kg) was fed by gavage twice a day, three times per week for a total of 2 weeks. Tumor growth was monitored every two days. SW-1 cells expressing peptide II under tet-inducible vector were injected SC (1×10^6). When tumors reached a size of about 50 mm^3, the mice received doxycycline in their drinking water ([…]) for a total of 2-4 weeks. At the end of the experiment, the tumors were excised and weighed. The lungs and other organs were subjected to histopathological examination to detect metastatic lesions.

LU1205 cells = test: Apoptosis by FACS (hypodiploid fraction); format: cell-based, human; conditions: peptide-expressing LU1205
Method: Treatment and apoptosis studies of stably transfected melanoma cells. Cells were exposed to UVC at 75 J/m^2 as previously described (Ronai, Z., et al., Oncogene 1998; 16:523-531). SB203580 (1-10 μM) (Calbiochem®, San Diego, Calif.), NCS (50-100 ng/ml) and mitomycin C (MMC) (0.2-1 μM) were used to treat melanoma cells. Flow cytometric analysis was performed on a FACSCalibur™ flow cytometer (Becton Dickinson) using CellQuest™ software as described previously (Nicoletti et al., J. Immunol. Methods 1991; 139:271-279). Cells were pelleted and resuspended in 0.5 ml of hypotonic buffer with 0.1% Triton X-100 containing PI (40 μg/ml) and DNase-free RNase A (1 mg/ml). Cells were incubated at 37° C. for 30 min and analyzed on a FACSCalibur™ flow cytometer (Becton Dickinson). The percentage of cells to the left of the diploid G0/1 peak, characteristic of hypodiploid cells that have lost DNA, was defined as the percentage of apoptotic cells. Analysis was performed with light scatter gating. Surface expression of Fas was determined using anti-Fas-PE antibody (PharMingen® CA) and flow cytometric analysis. Cell surface expression is measured as mean fluorescence intensity (MFI).

SW1 cells [2] = test: Thymidine incorporation (DNA synthesis); format: cell-based, mouse; conditions: peptide-expressing vs control cells
SW1 cells [3] = test: Cell cycle distribution after synchronization and serum stimulation; format: cell-based, mouse; conditions: 18-24 h after serum stimulation of synchronized cells
[4] = system: TRE-based promoter (c-Jun/AP1); test: TRE-Luc reporter in c-Jun wild-type fibroblasts; format: cell-based
Method: [Worded in the source for another cell line; this cell line is reported under the same test.] Transient transfection and transcriptional analysis. Mouse melanoma tumors grown in culture were transfected with control vector or peptide II expressing luciferase or β-galactosidase constructs (Bhoumik et al., Clin. Cancer Res. 2001; 7(2):331-42). Transient transfection of different reporter constructs (0.5 cg) with expression vectors and pCMV-Cgal (0.25 Cg) into 5×10^5 melanoma cells was performed using Lipofectamine™ (Life Technologies-BRL). Transfection of the Jun2-luciferase construct permitted us to monitor activity of ATF2 and c-Jun. Jun2-Luc and TRE-Luc constructs were previously described (van Dam H., et al., EMBO J. 1993; 12:479-487; and van Dam H., et al., EMBO J. 1995; 14:1798-1811). Luciferase activity was determined using the Luciferase assay system (Promega®, Madison, Wis.) and normalized on the basis of β-galactosidase (β-Gal) levels in transfected cells. Proteins were prepared for β-Gal and Luciferase analysis at the selected time points after transfection.

JNK = test: In vitro phosphorylation of the peptide; format: biochemical
SW1 melanoma tumors [5] = test: Growth of SW1 tumors in FasL-deficient GLD mice; format: in vivo; conditions: compared with C3H
Method: as §1

SW1 tumors = test: cDNA microarray expression profiling of SW1 tumors; format: in vivo, mouse
Method: cDNA microarray hybridizations. The 10 k mouse Gem 2 gene set (Incyte Genomics Inc, Palo Alto Calif.) was printed at the NCI on poly-L lysine coated glass using Biorobotics TASII arrayer (Cambridge, England). All protocols for the manufacturing and hybridization of microarrays are available at the NCI web site. Approximately 20 μg of total RNA was used in the reverse transcription reaction to directly label the probe with either Cy-5 dUTP or Cy-3 dUTP (Amersham®). Hybridizations were performed at 65° C. for 12-18 h in a hybridization volume of […]. The hybridized arrays were scanned using an Axon GenePix 4000® scanner (Union city, CA) and fluorescent data were collected using GenePix™ software.
Data Analysis. The axon image data for each microarray was uploaded to the NCI mAdb database for subsequent analysis using a variety of statistical web based tools. Gene clustering analysis was performed using the clustering algorithm and tree view software developed by Mike Eisen (Stanford, Calif.).

ATF2 = ATF2 phosphorylation in peptide-expressing melanoma cells; format: cell-based, human; conditions: vs control vector cells
[6] = tumors expressing peptide vs control vector

What does the source list for “peptide II: N-terminal polypeptide fragment of ATF2, amino acid residues 50-100, expressed from pcDNA3 with HA-penetratin tag (EMTLKFGPARNDSVIVADQTPTPTRFLKNCEEVGLFNELASPFENEFKKAS; also: HA-penetratin tag, position not given here; UniProt P15336 50-100, looked up, fragment)”?
tumor size (SW1 melanoma tumors [1]; 3-week period, control parent tumor 1800 mm^3): 100 mm^3; tumor size (SW1 melanoma tumors [1]; SC injection, analyzed three weeks later): very small tumors; average tumor size (SW1 melanoma tumors [1]; at 72 days): about 1200 mm^3; time for which tumor growth was completely blocked (SW1 melanoma tumors [1]; constitutive expression): up to 35 days; apoptosis in tumors (tunnel assay) (SW1 melanoma tumors [1]; excised SW1 tumors): substantially higher level of apoptosis; metastasis (SW1 melanoma tumors [1]; monitored up to 72 days): no metastasis was seen; increase in apoptosis comparable to neo expressing cells (LU1205 cells; Adriamycin + verapamil): 10 fold; increase in degree of apoptosis over control neo cells given Adriamycin and verapamil (LU1205 cells; Adriamycin + verapamil): 50%; apoptotic fraction of UV-treated cells (LU1205 cells; UV-C 75 J/m2, 36 h, neo control 15%): 38%; increase in the degree of cell death (LU1205 cells; higher doses (10 μM) of SB203580, 36 h): greater than 6 fold; increase in cell death (LU1205 cells; low doses of SB203580, 36 h): 3 fold; increase in the sensitivity to UV-induced apoptosis (LU1205 cells; treatment with JAK inhibitor AG490): 3 fold; reduction in DNA synthesis level (SW1 cells [2]): 50%; number of cells in the S-phase, lower than control cell population (SW1 cells [3]): 2 fold; increase in the activities of TRE-Luc [4]: 200 fold; phosphorylation of the peptide by JNK (JNK): Neither JNK nor p38 was found capable of phosphorylating; blocking growth of SW1 tumors (SW1 melanoma tumors [5]): as efficient in blocking growth; expression of ATF2 (SW1 tumors; four independent experiments): downregulated; expression of ATF4 transcripts (SW1 tumors; four independent experiments): increase; transcripts of interleukin-1 beta, cullin 3, kinesin-associated protein 3, ATF3 and membrane metallo-endopeptidase (SW1 tumors; tumors expressing peptide): up-regulated; transcripts of tyrosine kinase 2, metallothionein 2 and ubiquitin-specific protease 18 (SW1 tumors; tumors expressing peptide): downregulated; expression of Fas-associated genes (SW1 tumors; [6]): Downregulation; expression of growth-associated genes (SW1 tumors; [6]): consistent downregulation; expression of interferon-associated genes (SW1 tumors; [6]): consistent downregulation; expression of tumor necrosis factor-related genes (and other tumor antigens) (SW1 tumors; [6]): strongly upregulated; ATF2 phosphorylation after UV-treatment (ATF2; UV-treated): reduced; degree of ATF2 phosphorylation (ATF2; non-stressed growth conditions): higher degree of ATF2 phosphorylation
